Test results reported in PubChem BioAssay AID1996.
Converted amounts (≈) assume the structure as drawn.

Conditions: buffer; pH 7.4; 200.0 µM

SMILES | solubility kinetic [µg/mL]
O=S(=O)(Nc1ccc(Br)cn1)c1ccc2ccccc2c1 | 1.3 (≈ 3.58 µM)
CC1CCCCC1NC(=O)c1cc(S(=O)(=O)N2CCOCC2)ccc1Cl (stereo unspecified) | 16.7 (≈ 41.7 µM)
Cc1cn2c(N)c(/C=C3\C=Nc4ccccc43)c(=O)nc2s1 | < 0.2
CC1CCN(CCc2nc3ccccc3[nH]2)CC1 | 33.7 (≈ 138 µM)
CC(C)C(=O)Nc1ccc(-c2nc3ccccc3c(=O)o2)cc1 | 16.7 (≈ 54.2 µM)
COc1ccc(C(=O)NCCc2c[nH]c3ccc(OC)cc23)cc1 | > 48.7
Brc1c(-c2ccc3c(c2)OCO3)nc2ncccn12 | 38.8 (≈ 122 µM)
O=C(Cc1ccsc1)NCC(=O)Nc1ccc(F)c(F)c1 | > 46.5
O=C(O)CN1C(=O)/C(=C/c2cccc(Cl)c2)Oc2ccccc21 | 30.8 (≈ 93.4 µM)
COCCCNc1nc(N)c([N+](=O)[O-])c(Nc2ccccc2OC)n1 | 1 (≈ 2.87 µM)
O=C(NC(=S)Nc1ccccc1Br)C1CCC1 | 7.8 (≈ 24.9 µM)
CCOc1ccccc1C(=O)Nc1c[nH]c(=O)[nH]c1=O | 2.4 (≈ 8.72 µM)
CCc1ccccc1N1C(=O)[C@@H]2Cc3ccccc3CN2C1=O | 43.1 (≈ 141 µM)
N#CCC(=O)Nc1ccc(C(=O)Nc2cccnc2)cc1 | > 42
O=S(=O)(c1ccc(Br)cc1)N1CCCc2ccccc21 | 1.6 (≈ 4.54 µM)
CCCCN(C(=O)CSc1nc2ccccc2s1)c1c(N)n(CCCC)c(=O)[nH]c1=O | 35.6 (≈ 77.1 µM)
CC1CCN(C(=S)NC(=O)c2cccc([N+](=O)[O-])c2)CC1 | 34.2 (≈ 111 µM)
CNC(=S)N(CCO)Cc1cc2cc3c(cc2[nH]c1=O)OCO3 | 19.6 (≈ 58.4 µM)
Cc1cc(/C=C(\C#N)C(=O)O)c(C)n1CC1CCCO1 (stereo unspecified) | > 41.1
COc1ccccc1OCC(=O)Nc1nc(C)c(C)s1 | > 43.9
COCCCn1c(=S)[nH]c2sc3c(c2c1=O)CCCC3 | > 46.6
CN(CCOc1ccccc1)CC(=O)Nc1cc([N+](=O)[O-])ccc1Cl | 13.7 (≈ 37.7 µM)
Cc1cccc(NS(=O)(=O)Cc2ccccc2)c1C | 35.6 (≈ 129 µM)

SMILES | solubility kinetic [µg/mL]
Cc1ccnc(NS(=O)(=O)c2ccc(Cl)nc2)c1 | 26.9 (≈ 94.8 µM)
O=C(O)COc1ccc(NC(=O)C(c2ccccc2)c2ccccc2)cc1 | > 54.2
CC(=O)c1c(C)[nH]c(C(=O)COC(=O)Cc2ccccc2F)c1C | > 49.7
NC(=O)C1CCN(C(=O)/C=C/c2cccc(Br)c2)CC1 | 46.9 (≈ 139 µM)
CCOC(=O)N1CCN(C(=O)C(C)c2ccc([N+](=O)[O-])cc2)CC1 (stereo unspecified) | > 50.3
CCOC(=O)C1=C(C)NC(C)=C(C(=O)OCC)C1C(=O)OCC(=O)N1CCC(C)CC1 | 15.9 (≈ 36.4 µM)
COCc1cc(=O)[nH]c(N2CCN(C(=O)c3ccco3)CC2)n1 | > 47.7
O=C(O)[C@H](Cc1ccccc1)NC(=O)N1CCCCCC1 | > 43.6
CCCCn1c(O)c(C(C)=NCc2ccc3c(c2)OCO3)c(=O)[nH]c1=O | 0.6 (≈ 1.67 µM)
CC(C)CN1C(=O)C(=Nc2cccnc2)c2ccccc21 | > 41.9
O=C(NCCC(=O)N1CCCCCCC1)c1ccc(Cl)cc1 | > 48.4
CN(C)c1ccc(C(=O)OCC(=O)N2CCCCCC2)cc1 | 33.9 (≈ 111 µM)
CC(C)N(Cc1ccccc1)C(=O)COC(=O)c1cnc(Cl)c(Cl)c1 | 33.9 (≈ 88.9 µM)
Cc1ccc(C2NC(=S)NC3=C2C(=O)CCC3)cc1 (stereo unspecified) | 9 (≈ 33 µM)
O=C1CCC([N+](=O)[O-])C(C2CC=CCC2)N1 (stereo unspecified) | > 33.6
CC(=O)Nc1c(-c2ccccc2)nc2cc(C)ccn12 | 29.4 (≈ 111 µM)
CC(Oc1ccccc1)C(=O)N1CCN=C1SCc1cccc(F)c1 (stereo unspecified) | 11.1 (≈ 31 µM)
Cc1ccc(S(=O)(=O)N2CCN(C(=O)c3ccco3)CC2)c(C)c1 | 49 (≈ 141 µM)
Cn1ccsc1=NC(=O)c1ccc(OC(F)(F)F)cc1 | 9.3 (≈ 30.8 µM)
COc1ccc2c(c1)CCc1c(C(=O)NCC(C)C)noc1-2 | 1.5 (≈ 4.99 µM)
O=C(CNC1CCCCC1)Nc1ccc(Cl)cc1 | 38 (≈ 142 µM)
N=c1oc2ccc3ccccc3c2cc1C(N)=S | 7.2 (≈ 28.3 µM)
O=C(CSc1ncn[nH]1)NCc1ccc2c(c1)OCO2 | > 43.8
